The results in this text go back to patent publication EP0831835B1, “TREATING ANOREXIA” (ELI LILLY AND COMPANY, priority 1995, dated 1996).

One data set concerns the target T1, 5-HT1C receptor (Homo sapiens, UniProt P28335).
T1 sequence (P28335 33-458): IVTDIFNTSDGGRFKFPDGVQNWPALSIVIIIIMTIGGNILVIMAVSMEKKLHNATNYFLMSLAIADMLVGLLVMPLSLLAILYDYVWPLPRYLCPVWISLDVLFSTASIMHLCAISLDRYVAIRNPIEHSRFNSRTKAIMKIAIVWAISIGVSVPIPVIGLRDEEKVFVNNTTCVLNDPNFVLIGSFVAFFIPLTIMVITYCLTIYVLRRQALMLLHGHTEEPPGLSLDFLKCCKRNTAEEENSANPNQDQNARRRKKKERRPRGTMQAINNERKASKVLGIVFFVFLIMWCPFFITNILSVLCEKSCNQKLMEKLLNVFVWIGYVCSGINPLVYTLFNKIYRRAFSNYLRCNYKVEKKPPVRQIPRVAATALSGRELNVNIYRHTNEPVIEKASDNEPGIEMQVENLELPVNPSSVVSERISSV
Description: pharmacological studies, activity at 5-HT1C receptor.

The test system of the next data set is rodents. Description: animal studies in rodents (food intake / weight). The format is in vivo, Male Sprague Dawley CD rats. As to conditions: many such animals. On the procedure: Male Sprague Dawley CD rats (Charles River, Wilmington, Mass.) are individually housed in cages with ad libitum access to Animal Chow and tap water. Temperature is maintained at approximately 21° C. Rats are adapted to vivarium conditions for at least a week before tests begin.
At the start of the experiments, the rats are weighed. […] Tests are conducted every 3-4 days. Food intake (± 0.1 g) is recorded hourly for the 5 h after intubation and after 24 h.

The test system of another data set is dogs. Description: animal studies in dogs (weight). The format is in vivo.
The next data set relates to human patients. Description: double-blind multicenter clinical trial versus placebo. As to conditions: human patients randomized to compound or placebo. The format is in vivo.
In the next data set the test system is human subjects. Description: double blind multicenter clinical trial versus haloperidol. The format is in vivo. The conditions noted are these: 1,996 human subjects, 5-20 mg/day, 6 weeks. From the text: Another double blind multicenter clinical trial was completed using 1,996 human subjects. […] The study continued for 6 weeks, with possible extensions.
The nature of data set [1]: detection of radiolabelled compound in saliva. It counts as in vivo. How it is done:
For example, in the treatment of adult humans, dosages of from about 0.25 to 50 mg, preferably from 1 to 30 mg, and most preferably 1 to 20 mg per day may be used. A once a day dosage is normally sufficient, although divided doses may be administered. For treatment of cognitive dysfunction, a dose range of from 1 to 30 mg, preferably 1 to 20 mg per day is suitable.

Data set [2] concerns muscarinic cholinergic receptor. The conditions noted are these: results of pharmacological studies.

As for `Cc1cc2c(s1)Nc1ccccc1N=C2N1CCN(C)CC1` [2-methyl-4-(4-methyl-1-piperazinyl)-10H-thieno[2,3-b][1,5]benzodiazepine], the “activity at the 5-HT1C receptor” value on 5-HT1C receptor was “active”. Further, in the data set on rodents, the weight change result was “lost weight”. In addition, in the data set on dogs, the “effectiveness for treatment of clinically significant decrease in appetite” value is “would not be effective”. Further, the weight change result in the data set on dogs (many such animals) is recorded as “lost weight”. Besides, the “usefulness for the treatment of anorexia” value in the data set on human patients is reported as “can be useful for the treatment of anorexia”. For the same compound, in the data set on human subjects, the appetite entry was “increase in appetite” and the weight gain result was “statistically significant dose dependent weight gain”. Further, the detection in saliva result in data set [1] is on record as “can be detected in the saliva”. In addition, in data set [2], the “muscarinic cholinergic receptor activity” value is “has muscarinic cholinergic receptor activity”.
